Measurements taken from patent US11241417B2, “Compositions and methods for the treatment and prevention of neurological disorders” (Yumanity Therapeutics, Inc., priority 2018, dated 2022).
“Also recorded” adds a separate entry of the source.

How the values were obtained:
Type in all cases: cell-based
[1] = system: primary rat cortical neurons transfected with wild-type TDP-43; test: Survival of primary rat cortical neurons transfected with wild-type TDP-43; conditions: rat primary cortical neurons co-transfected with RFP and wild-type human TDP-43; titration of compound; cox regression
Protocol: (§1) Rat primary cortical neurons were co-transfected with a red fluorescent protein (RFP) as a morphological marker and either control (empty vector) or wild-type TDP-43 expression plasmids and treated with vehicle (DMSO) or a titration of compound (3). (FIG. 3A) Risk of neuron death plots. The lifetime of each neuron was determined by either loss of RFP signal or morphological indicators of death such as loss of neurites and cell blebbing and used to generate cumulative hazard plots of risk of death over time (hrs) post-transfection. (FIG. 3B) Forest plots. Hazard ratios for each treatment group (relative to TDP-43 DMSO group) were determined by cox regression analysis and used to generate forest plots. […] P, p-value.
Rat primary cortical neurons were co-transfected with a red fluorescent protein (RFP) as a morphological marker and either control (empty vector) or wild type TDP-43 expression plasmids and treated with vehicle (DMSO) or a titration of compound (4). […] The lifetime of each neuron was determined by either loss of RFP signal or morphological indicators of death such as loss of neurites and cell blebbing and used to generate cumulative hazard plots of risk of death over time (hrs) post-transfection. […] Hazard ratios for each treatment group (relative to TDP-43 DMSO group) were determined by cox regression analysis and used to generate forest plots. […]

[2] = system: primary rat cortical neurons transfected with Q331K Mutant TDP-43; test: Survival of primary rat cortical neurons transfected with Q331K mutant TDP-43; conditions: rat primary cortical neurons co-transfected with RFP and Q331K mutant TDP-43; titration of compound; cox regression
Protocol: as §1, with “Q331K mutant” for “wild-type”, “4A)” for “3A)”, “4B)” for “3B)”
The toxic gain of function features of TDP-43 can be faithfully recapitulated in the simple model organism, budding yeast, where the protein also localizes to stress granules. […] The yeast model thus provides a robust cell-based screening platform for small molecules capable of ameliorating toxicity. To validate compounds from such phenotypic screens, it is imperative to test compounds in a mammalian neuronal context. In an effort to develop TDP-43-related mammalian models of neuron loss that occurs in ALS and FTD, primary cultures of rat cortical neurons were transfected with human wild type or Q331K mutant TDP-43. […]

Erg11 = test: HPLC analysis for lanosterol and ergosterol in fluconazole-treated wild-type yeast cultures; conditions: wild-type yeast cultures treated for eight hours, normalized to optical density at 600 nm
Protocol: (§2) (FIG. 1A) Structure of the Erg11 inhibitor and anti-fungal, fluconazole. […] A 2-fold serial dilution of fluconazole was applied to TDP-43-expressing yeast for 24 hours prior to analysis. (FIG. 1C) Wild-type yeast cultures were treated with fluconazole for eight hours prior to HPLC analysis for lanosterol and ergosterol. Data are expressed as the area under the curve (AUC) normalized to cell mass based on optical density of cultures at 600 nm.
Fluconazole is an antifungal known to inhibit Erg11, the yeast lanosterol 14-alpha demethylase (FIG. 1B). […] CYP51A1 has also been known as lanosterol 14-alpha demethylase, which describes its function in removing the 14-alpha-methyl group from lanosterol to generate 4,4-dimethylcholesta-8(9),14,24-trien-3β-ol, which is a critical step in the cholesterol biosynthetic pathway.

TDP-43-expressing yeast = test: Yeast TDP-43 model viability (resazurin-reduction endpoint); conditions: 2-fold serial dilution applied for 24 hours
Protocol: as §2
The toxic gain of function features of TDP-43 can be faithfully recapitulated in the simple model organism, budding yeast, where the protein also localizes to stress granules. […] The yeast model thus provides a robust cell-based screening platform for small molecules capable of ameliorating toxicity. To validate compounds from such phenotypic screens, it is imperative to test compounds in a mammalian neuronal context. In an effort to develop TDP-43-related mammalian models of neuron loss that occurs in ALS and FTD, primary cultures of rat cortical neurons were transfected with human wild type or Q331K mutant TDP-43. These cells were compared to cells which received an empty expression vector control. […] In the experiments described in this example, this model system is used to interrogate new therapeutic approaches to ameliorate TDP-43 toxicity.
Fluconazole is an antifungal known to inhibit Erg11, the yeast lanosterol 14-alpha demethylase (FIG. 1B). […]

## O=C(N[C@@H](Cc1ccc(F)cc1)C(=O)N1CCC(O)CC1)c1cc2cc(Cl)ccc2[nH]1 [compound (4)]
[1]
  neuron survival (risk of neuron death, hazard ratio relative to TDP-43 DMSO group): promotes survival

## CCCN(CCc1ccc(Cl)c(Cl)c1)CC(O)c1cccnc1 (stereo not drawn) [compound (3)]
[1]
  neuron survival (risk of neuron death, hazard ratio relative to TDP-43 DMSO group): reduction in survival was partially alleviated; also recorded: promotes survival
[2]
  neuron survival (risk of neuron death, hazard ratio relative to TDP-43 DMSO group): promotes survival

## OC(Cn1cncn1)(Cn1cncn1)c1ccc(F)cc1F [Fluconazole]
Erg11
  ergosterol (AUC normalized to cell mass): reduces ergosterol
  lanosterol (AUC normalized to cell mass): increase in the Erg11 substrate, lanosterol
TDP-43-expressing yeast
  viability of TDP-43-expressing yeast: restored viability; also recorded: rescues viability
